Experimental data taken from patent publication US9624206B2, “Antibacterial 1H-indazole and 1H-indole derivatives” (priority 2013, dated 2017).
Read-outs that look alike come from different tables or passages of the source.

What was measured:
Type in all cases: cell-based
wild-type E. coli A-1261 = test: MIC against wild-type E. coli A-1261 with or without alkaline phosphatase or esterase; settings: Escherichia coli
Method: Minimal Inhibitory Concentrations (MICs; mg/L) were determined in cation-adjusted Mueller-Hinton Broth by a microdilution method following the description given in “Methods for Dilution Antimicrobial Susceptibility Tests for Bacteria that Grow Aerobically”, Approved standard, 7th ed., Clinical and Laboratory Standards Institute (CLSI) Document M7-A7, Wayne, Pa., USA (2006). The compounds of Examples 48 and 49 were tested against wild-type E. coli A-1261 in the absence of alkaline phosphatase or esterase, in the presence of an alkaline phosphatase and in the presence of an esterase. The corresponding antibacterial test results are given in Table 2 hereafter (MICs in mg/L).

P. aeruginosa ATCC27853 = test: Bacterial growth minimal inhibitory concentration (microdilution, CLSI M7-A7); settings: Pseudomonas aeruginosa, ATCC27853; quinolone-sensitive strain; cation-adjusted Mueller-Hinton Broth
In short: (§1)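 Broth microdilution in cation-adjusted Mueller-Hinton broth per CLSI M7-A7, with MICs in mg/L. K. pneumoniae A-651 and A. baumannii T6474 are multiply resistant, including to quinolones. E. coli ATCC25922 and P. aeruginosa ATCC27853 are quinolone-sensitive.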

[1] = system: Acinetobacter baumannii T6474; test: as above; settings: Acinetobacter baumannii, T6474; multiply-resistant strain (in particular quinolone-resistant); cation-adjusted Mueller-Hinton Broth
In short: as §1

E. coli ATCC25922 = test: as above; settings: Escherichia coli, ATCC25922; quinolone-sensitive strain; cation-adjusted Mueller-Hinton Broth
In short: as §1

K. pneumoniae A-651 = test: as above; settings: Klebsiella pneumoniae, A651; multiply-resistant strain (in particular quinolone-resistant); cation-adjusted Mueller-Hinton Broth
In short: as §1

[2] = read-out: MIC for E. coli A-1261 In the absence of alkaline phosphatase or esterase
[3] = read-out: MIC for E. coli A-1261 In the presence of an alkaline phosphatase (2 i.U./mL)
[4] = read-out: MIC for E. coli A-1261 In the presence of an esterase (10 i.U./mL)

Row | MIC (wild-type E. coli A-1261; [2]) [µg/mL] | MIC (wild-type E. coli A-1261; [3]) [µg/mL] | MIC (wild-type E. coli A-1261; [4]) [µg/mL] | MIC (P. aeruginosa ATCC27853) [µg/mL] | MIC [1] [µg/mL] | MIC (E. coli ATCC25922) [µg/mL] | MIC (K. pneumoniae A-651) [µg/mL] | SMILES
1 | 16 | 1 | 16 | – | – | – | – | C[C@@](CCn1ncc2cc(C#Cc3ccc(C4(COP(=O)(O)O)CC4)cc3)ccc21)(C(=O)NO)S(C)(=O)=O [Example 48, (R)-(1-(4-((1-(4-(hydroxyamino)-3-methyl-3-(methylsulfonyl)-4-oxobutyl)-1H-indazol-5-yl)ethynyl)phenyl)cyclopropyl)methyl dihydrogen phosphate]
2 | 1 | 1 | 0.125 | 16 | 2 | 1 | 2 | CN(C)CC(=O)OCC1(c2ccc(C#Cc3ccc4c(cnn4CC[C@](C)(C(=O)NO)S(C)(=O)=O)c3)cc2)CC1.O=CO [Example 49, (R)-(1-(4-((1-(4-(hydroxyamino)-3-methyl-3-(methylsulfonyl)-4-oxobutyl)-1H-indazol-5-yl)ethynyl)phenyl)cyclopropyl)methyl dimethylglycinate formate]
